Usually AC50 stands for the concentration at which the activity in the assay is half-maximal. As usually defined, the IC50 is the concentration that gives 50% inhibition.

The source made the active and inactive calls.

Our source for the AC50 and IC50 values is ChEMBL document CHEMBL1201862, “PubChem BioAssay data set” (2004).

The target of one assay is Paired box protein Pax-8 (Homo sapiens, UniProt Q06710). The experiment in a line: inhibitors of PAX8-driven TPO luciferase reporter, dose response, RMG-I cells, cherry-pick (AID 687027).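 Note: luciferase reporter driven by Pax8 target thyroperoxidase promoter measured by SteadyGlo luminescence.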 In kind it is functional, cell-based.
Sequence of Paired box protein Pax-8 (Q06710 whole entry): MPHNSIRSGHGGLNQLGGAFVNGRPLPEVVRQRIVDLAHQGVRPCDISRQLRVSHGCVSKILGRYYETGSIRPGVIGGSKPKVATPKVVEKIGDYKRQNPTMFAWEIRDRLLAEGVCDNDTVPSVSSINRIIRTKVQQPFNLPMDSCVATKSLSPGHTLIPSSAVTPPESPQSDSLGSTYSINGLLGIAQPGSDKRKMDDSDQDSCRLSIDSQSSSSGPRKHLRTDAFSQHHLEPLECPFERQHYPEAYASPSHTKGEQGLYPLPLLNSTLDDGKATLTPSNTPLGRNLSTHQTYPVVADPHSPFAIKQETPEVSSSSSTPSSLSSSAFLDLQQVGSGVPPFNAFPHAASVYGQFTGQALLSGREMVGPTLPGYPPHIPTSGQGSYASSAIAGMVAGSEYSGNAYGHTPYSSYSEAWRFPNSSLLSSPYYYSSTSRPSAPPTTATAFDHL
The nature of assay [1]: IOSE-T80 ovarian epithelial cell cytotoxicity, dose response, cytotoxicity control for PAX8 inhibitor project, plate reader, dry powder samples (AID 743045). Format: functional, cell-based.
Assay [2] is described as follows: A2780 ovarian cancer cell cytotoxicity, dose response, cytotoxicity control, plate reader, dry powder samples (AID 743046). In kind it is functional, cell-based.
Assay [3] can be described thus: NIH:OVCAR-3 ovarian cancer cell cytotoxicity, dose response, PAX8 inhibitor project, plate reader, dry powder samples (AID 743044). In kind it is functional, cell-based.
Assay [4] in a line: cytotoxicity in OVCAR8 ovarian cancer cells, dose response, PAX8 project, cell-based, plate reader, dry powder samples (AID 743197). Format: functional. Conditions: OVCAR-8.
Assay [5] in a line: PAX2 cell-based inhibition, dose response, selectivity assay for PAX8 inhibitor project, plate reader, dry powder samples (AID 743048).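 Note: HEK293 cells carrying a WT1 promoter luciferase reporter driven by expressed Pax2; potency is for inhibition of Pax2 driven reporter signal.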 Format: functional.
Assay [6] in a line: PAX5 activity inhibitors, dose response, selectivity assay for PAX8 inhibitor project, cell-based, plate reader, dry powder samples (AID 743047).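 Note: HEK293 cells carrying a Pax5 driven CD19 promoter luciferase reporter; potency of inhibitors that lower reporter luminescence.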 Format: functional.
Assay [7] is described as follows: cytotoxicity in OVCAR4 cells, dose response, cytotoxicity control for PAX8 inhibitor project, cell-based, plate reader, dry powder, SA11 (AID 743150). In kind it is functional. To be noted: OVCAR-4.
Assay [8] is described as follows: cytotoxicity in COV434 cells, dose response, cytotoxicity control for PAX8 inhibitor project, cell-based, plate reader, dry powder, SA7 (AID 743145). In kind it is functional.
A short description of assay [9]: cytotoxicity in OV-90 ovarian cancer cells, dose response, PAX8 inhibitor project, cell-based, plate reader, dry powder, SA8 (AID 743149). In kind it is functional.
The nature of assay [10]: cytotoxicity dependent on PAX8, dose response, cell-based, plate reader, dry powder (AID 743049). In kind it is functional.
Assay [11] in a line: Late stage assay provider results from the probe development effort to identify inhibitors of the Plasmodium falciparum M18 Aspartyl Aminopeptidase (M18AAP): radiolabel-based cell-based dose response assay to identify compounds that inhibit P. falciparum growth in RBCs, Set 2.. In kind it is functional.
The nature of assay [12]: P. falciparum 3D7-ScDHODH growth inhibitors, dose response, SYBR Green, dry powder samples (AID 1159570).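 Note: parasite growth measured after 72 hours of compound exposure.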 Format: functional, cell-based.
Assay [13] in a line: P. falciparum Dd2 growth inhibitors, dose response, SYBR Green, cherry-picked samples (AID 1159567). In kind it is functional, cell-based.
Assay [14] can be described thus: P. falciparum Dd2 growth inhibitors, dose response, SYBR Green, dry powder samples (AID 1159566).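 Note: potency for growth inhibition with lower SYBR green DNA signal.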 In kind it is functional, cell-based.
Assay [15] can be described thus: P. falciparum ATP4 D1247Y mutant growth inhibitors, dose response, NITD609-resistant line, SYBR Green, dry powder (AID 1159571).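 Note: parasites synchronized at ring stage by sorbitol before testing.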 Format: functional, cell-based.
Assay [16] is described as follows: P. falciparum Dd2 growth inhibitors, dose response, SYBR Green, dry powder samples, set 9 (AID 1159568). In kind it is functional, cell-based.
Assay [17] in a line: HepG2 cell cytotoxicity, dose response, cytotoxicity control, cherry-picked samples (AID 1159577). In kind it is functional, cell-based.
The nature of assay [18]: HeLa 2N DNA content increase, dose response, cell-based, IC50 (AID 1117349). Format: functional.
The nature of assay [19]: Concentration-dependent survival of SW480 colon cancer line, luminescence detection with CellTiter-Glo, half-maximal inhibitory concentration (AID 1117338). Format: functional.
A short description of assay [20]: RKO cell viability reduction, dose response, CellTiter-Glo luminescence (AID 1117322). In kind it is functional. Background: In ATP-based viability assays light output follows the ATP content of the culture.
A short description of assay [21]: cytotoxicity toward HCT116 cells – cell-based, CellTiter-Glo luminescence, IC50, dose response (AID 1117332). In kind it is functional. Conditions: HCT-116.
The nature of assay [22]: SNU-C1 cell viability reduction, dose response, CellTiter-Glo luminescence (AID 1117323). Format: functional, cell-based.
Assay [23] is described as follows: cytotoxicity toward Colo320 cells – cell-based, CellTiter-Glo luminescence, IC50, dose response (AID 1117334). Format: functional. To be noted: COLO 320.
Assay [24] can be described thus: HeLa 4N DNA content increase, dose response, cell-based, IC50 (AID 1117351). In kind it is functional.
Assay [25] in a line: cytotoxicity toward HT-29 cells – cell-based, CellTiter-Glo luminescence, IC50, dose response (AID 1117330). In kind it is functional.
Assay [26] is described as follows: CellTiter-Glo luminescent dose response of DLD-1 viability loss (AID 1117352). In kind it is functional.
Assay [27] in a line: HCT116 cell viability decrease, GSK3B pretreatment – CellTiter-Glo, IC50, dose response (AID 1117339). In kind it is functional. Conditions: HCT-116.

For the compound `C[C@H]1CCCCO[C@@H](CN(C)Cc2ccc(C(F)(F)F)cc2)[C@@H](C)CN([C@@H](C)CO)C(=O)c2cc(NS(=O)(=O)c3ccc(Cl)cc3)ccc2O1`, the concentration at half-maximal activity (AC50) is 4.39 µM (active) on Paired box protein Pax-8; 36.4 µM (active) in [1]; 0.528 µM (active) in assay [2]; 11 µM (active) in assay [3]; 19.7 µM (active) in [4].

Take `N#C[C@@H]1[C@H](c2ccc(C#CC3CCCCC3)cc2)[C@H](CO)N1S(=O)(=O)c1ccccc1`: the AC50 at Paired box protein Pax-8 is 11.1 µM (active); in assay [5] it was > 32 µM (inactive); in assay [6] it was 29.9 µM (active); in assay [7], > 70 µM (inactive); in assay [8], 36.6 µM (active); in assay [9], 22.2 µM (active). Moreover, the AC50 in assay [10] is 25.6 µM (active).

In the case of `CCOc1ccc2nccc(NCCc3ccc(OC)c(OC)c3)c2c1`, the IC50 in assay [11] is 1.4 µM (active).

For the compound `Oc1ccc(CCNc2ccnc3cc(Cl)ccc23)cc1O`, the IC50 in assay [11] was 0.62 µM (active).

Regarding `O=C(c1ccccc1F)N1CC(=O)N2[C@H](C1)[C@@H](c1ccc(-c3ccc(F)cc3)cc1)[C@@H]2CO`, the AC50 in assay [12] was 1.72 µM (active); in assay [13], 1.41 µM (active); in assay [14], 0.497 µM (active); in assay [15] it was 1.09 µM (active).

With `COc1ccc(S(=O)(=O)Nc2ccc3c(c2)C(=O)N([C@H](C)CO)C[C@@H](C)[C@H](CN(C)Cc2ccc(C(F)(F)F)cc2)OCCCC[C@@H](C)O3)cc1`, the AC50 in [16] is 3.69 µM (active).

As for `C[C@@H]1CN([C@@H](C)CO)S(=O)(=O)c2ccc(/C=C/c3ccccc3)cc2O[C@@H]1CN(C)C(=O)Nc1ccc(F)cc1`, the concentration at half-maximal activity (AC50) was 5.09 µM (active) in assay [13] and 25.5 µM (active) in assay [17].

With `C[C@H]1CCCCO[C@H](CN(C)S(=O)(=O)c2ccc(F)cc2)[C@@H](C)CN([C@@H](C)CO)C(=O)c2cc(N(C)C)ccc2O1`, in assay [16], the AC50 is 4.91 µM (active).

With `CCCc1cn(CC[C@H]2CC[C@@H](NS(=O)(=O)c3ccc(-c4ccccc4)cc3)[C@H](CO)O2)nn1`, the results for the AC50 in [13] and in assay [17] were 1.31 µM (active) and 14.8 µM (active), respectively.

For the compound `CC[C@H]1CN2CCc3cc(OC)c(OC)cc3[C@@H]2C[C@@H]1C[C@H]1NCCc2cc(OC)c(OC)cc21` [EMETINE], the IC50 in assay [18] was > 10 µM (inactive); in [19] it was 0.001 µM (active); in [20], 0.00831 µM (active); in assay [21], 0.0615 µM (active); in [22], 0.00228 µM (active); in assay [23], 0.0221 µM (active). The IC50 in assay [24] is > 10 µM (inactive); in assay [25], 0.0163 µM (active); in assay [26], 0.0116 µM (active); in assay [27], 0.001 µM (active).
